The record followed here is patent US9265253B2, “Use of macrocyclic picolinamides as fungicides” (DOW AGROSCIENCES LLC, priority 2013, dated 2016).

Type in all cases: in vivo
One assay concerns Cercospora beticola. In words: Leaf Spot of Sugar Beets (CERCBE) disease control. Conditions: Cercospora beticola, topical, 24 h, 1 Day Protectant, sugar beet, read-out: Disease Control CERCBE 1 DP. Here is the method:
Technical grades of materials were dissolved in acetone, which were then mixed with nine volumes of water containing 110 ppm Triton X-100. The fungicide solutions were applied onto wheat seedlings using an automated booth sprayer to run-off. All sprayed plants were allowed to air dry prior to further handling. All fungicides were evaluated using the aforementioned method for their activity vs. all target diseases. Wheat leaf blotch and brown rust activity were also evaluated using track spray applications, in which case the fungicides were formulated as EC formulations, containing 0.1% Trycol 5941 in the spray solutions. Wheat plants (variety Yuma) were grown from seed in a greenhouse in 50% mineral soil/50% soil-less Metro mix until the first leaf was fully emerged, with 7-10 seedlings per pot. These plants were inoculated with an aqueous spore suspension of Septoria tritici either prior to or after fungicide treatments. After inoculation the plants were kept in 100% relative humidity (one day in a dark dew chamber followed by two to three days in a lighted dew chamber at 20° C.) to permit spores to germinate and infect the leaf. The plants were then transferred to a greenhouse set at 20° C. for disease to develop. When disease symptoms were fully expressed on the 1st leaves of untreated plants, infection levels were assessed on a scale of 0 to 100 percent disease severity. Percent disease control was calculated using the ratio of disease severity on treated plants relative to untreated plants. Sugar beet plants (variety HH88) were grown in soil-less Metro mix and trimmed regularly to maintain a uniform plant size prior to test. Plants were inoculated with a spore suspension 24 hr after fungicide treatments. Inoculated plants were kept in a dew chamber at 22° C. for 48 hr then incubated in a greenhouse set at 24° C. under a clear plastic hood with bottom ventilation until disease symptoms were fully expressed. Fungicide formulation, application and disease assessment on the sprayed leaves followed the procedures as described in the Example A.

Another assay relates to Rhyncosporium secalis. In words: Barley Scald (RHYNSE) disease control. The conditions noted are these: Hordeum vulgare, 24 h, 1 Day Protectant, read-out: Disease Control RHYNSE 1 DP. Here is the method: Technical grades of materials were dissolved in acetone, which were then mixed with nine volumes of water containing 110 ppm Triton X-100. The fungicide solutions were applied onto wheat seedlings using an automated booth sprayer to run-off. All sprayed plants were allowed to air dry prior to further handling. All fungicides were evaluated using the aforementioned method for their activity vs. all target diseases. Wheat leaf blotch and brown rust activity were also evaluated using track spray applications, in which case the fungicides were formulated as EC formulations, containing 0.1% Trycol 5941 in the spray solutions. Wheat plants (variety Yuma) were grown from seed in a greenhouse in 50% mineral soil/50% soil-less Metro mix until the first leaf was fully emerged, with 7-10 seedlings per pot. These plants were inoculated with an aqueous spore suspension of Septoria tritici either prior to or after fungicide treatments. After inoculation the plants were kept in 100% relative humidity (one day in a dark dew chamber followed by two to three days in a lighted dew chamber at 20° C.) to permit spores to germinate and infect the leaf. The plants were then transferred to a greenhouse set at 20° C. for disease to develop. When disease symptoms were fully expressed on the 1st leaves of untreated plants, infection levels were assessed on a scale of 0 to 100 percent disease severity. Percent disease control was calculated using the ratio of disease severity on treated plants relative to untreated plants. Barley seedlings (variety Harrington) were propagated in soil-less Metro mix, with each pot having 8 to 12 plants, and used in the test when first leaf was fully emerged. Test plants were inoculated by an aqueous spore suspension of Rhyncosporium secalis 24 hr after fungicide treatments. After inoculation the plants were kept in a dew room at 20° C. with 100% relative humidity for 48 hr. The plants were then transferred to a greenhouse set at 20° C. for disease to develop. Fungicide formulation, application and disease assessment on the sprayed leaves followed the procedures as described in the Example A.

Another assay concerns Phakopsora pachyrhizi. As to the kind of experiment: Asian Soybean Rust (PHAKPA) disease control. Conditions: Phakopsora pachyrhizi, topical. Here is the method: Technical grades of materials were dissolved in acetone, which were then mixed with nine volumes of water containing 0.011% Tween 20. The fungicide solutions were applied onto soybean seedlings using an automated booth sprayer to run-off. All sprayed plants were allowed to air dry prior to further handling.
Soybean plants (variety Williams 82) were grown in soil-less Metro mix, with one plant per pot. Two weeks old seedlings were used for testing. Plants were inoculated either 3 days prior to or 1 day after fungicide treatments. Plants were incubated for 24 h in a dark dew room at 22° C. and 100% RH then transferred to a growth room at 23° C. for disease to develop. Disease severity was assessed on the sprayed leaves.

In the next assay the test system is Uncinula necator. In words: Grape Powdery Mildew (UNCINE) disease control. The conditions noted are these: Erysiphe necator, topical, 24 h, 1 Day Protectant, read-out: Disease Control UNCINE 1 DP. Here is the method:
Technical grades of materials were dissolved in acetone, which were then mixed with nine volumes of water containing 110 ppm Triton X-100. The fungicide solutions were applied onto wheat seedlings using an automated booth sprayer to run-off. All sprayed plants were allowed to air dry prior to further handling. All fungicides were evaluated using the aforementioned method for their activity vs. all target diseases. Wheat leaf blotch and brown rust activity were also evaluated using track spray applications, in which case the fungicides were formulated as EC formulations, containing 0.1% Trycol 5941 in the spray solutions. Wheat plants (variety Yuma) were grown from seed in a greenhouse in 50% mineral soil/50% soil-less Metro mix until the first leaf was fully emerged, with 7-10 seedlings per pot. These plants were inoculated with an aqueous spore suspension of Septoria tritici either prior to or after fungicide treatments. After inoculation the plants were kept in 100% relative humidity (one day in a dark dew chamber followed by two to three days in a lighted dew chamber at 20° C.) to permit spores to germinate and infect the leaf. The plants were then transferred to a greenhouse set at 20° C. for disease to develop. When disease symptoms were fully expressed on the 1st leaves of untreated plants, infection levels were assessed on a scale of 0 to 100 percent disease severity. Percent disease control was calculated using the ratio of disease severity on treated plants relative to untreated plants. Grape seedlings (variety Carignane) were grown in soil-less Metro mix, with one plant per pot, and used in the test when approximately one month old. Plants were inoculated 24 hr after fungicide treatment by shaking spores from infected leaves over test plants. Plants were maintained in a greenhouse set at 20° C. until disease was fully developed. Fungicide formulation, application and disease assessment on the sprayed leaves followed the procedures as described in the Example A.

For assay [1], the system named is Magnaporthe grisea; Anamorph: Pyricularia oryzae. As to the kind of experiment: whole plant or invertebrate. Conditions: Pyricularia oryzae, topical, 24 h, read-out: Disease Control PYRIOR 1 DP.
The mark [2] stands for this setting: 24 h, 1 Day Protectant, read-out: Disease Control PHAKPA 1DP.
Where [3] appears, read: 72 h, 3 Day Curative, read-out: Disease Control PHAKPA 3DC.

Read-outs that look alike come from different tables or passages of the source.

Consider `COc1ccnc(C(=O)N[C@H]2CCC[C@H](Cc3ccc(F)cc3F)[C@@H](OC(=O)c3ccco3)[C@H](C)OC2=O)c1OCOC(C)=O` [Compound F144], for which the pest or weed control at 100 ppm with Cercospora beticola lay within 0 to 80%; in the assay with Rhyncosporium secalis, 80 to 100%; with Uncinula necator, 0 to 80%. For the same compound, the pest or weed control at 25 ppm in the assay with Phakopsora pachyrhizi (setting [2]) was in the range of 0 to 80%.

In the case of `CCCO[C@@H]1[C@@H](Cc2ccccc2)CCC[C@H](NC(=O)c2nccc(OC)c2OC(=O)CCOC)C(=O)O[C@H]1C` [Compound F198], the pest or weed control at 100 ppm (in the assay on Cercospora beticola; with Rhyncosporium secalis; in assay [1]; in the assay with Uncinula necator) was 80 to 100% in each case.

As to `COc1ccnc(C(=O)N[C@H]2CCC[C@H](Cc3ccc(F)cc3F)[C@@H](OCC(C)C)[C@H](C)OC2=O)c1OCOC(C)=O` [Compound F145], the pest or weed control at 100 ppm in the assay on Cercospora beticola, in the assay on Rhyncosporium secalis and with Uncinula necator was 80 to 100% in each case. Also, the values for the pest or weed control at 25 ppm in the assay on Phakopsora pachyrhizi (setting [2]) and in the assay on Phakopsora pachyrhizi (setting [3]) were 80 to 100% and 0 to 80%, respectively.

For `COc1ccnc(C(=O)N[C@H]2CCC[C@H](CCBr)[C@@H](Oc3ccccc3)[C@H](C)OC2=O)c1OC(C)=O` [Compound F80], the pest or weed control at 100 ppm with Cercospora beticola lay in the range of 80 to 100%; in assay [1], 80 to 100%; in the assay on Uncinula necator it was 0 to 80%. Further, the pest or weed control at 25 ppm in the assay with Phakopsora pachyrhizi (setting [2]) was in the range of 80 to 100%; in the assay with Phakopsora pachyrhizi (setting [3]), 0 to 80%.

With `COc1ccnc(C(=O)N[C@H]2CCC[C@H](Cc3ccc(F)cc3)[C@@H](OCC(C)C)[C@H](C)OC2=O)c1OCOC(C)=O` [Compound F102], the pest or weed control at 100 ppm with Uncinula necator lay in the range of 0 to 80%.

Consider `COc1ccnc(C(=O)N[C@H]2CCC[C@H](Cc3ccccc3)[C@@H](OCC(C)C)[C@H](C)OC2=O)c1OCOC(=O)C(C)C` [Compound F151], for which the pest or weed control at 100 ppm (in the assay on Cercospora beticola; in assay [1]) was 80 to 100% throughout. Further, the pest or weed control at 25 ppm in the assay on Phakopsora pachyrhizi (setting [2]) and in the assay on Phakopsora pachyrhizi (setting [3]) was 80 to 100% each time.

As for `CCO[C@@H]1[C@@H](Cc2ccccc2)CCC[C@H](NC(=O)c2nccc(OC)c2OC(C)=O)C(=O)O[C@H]1C` [Compound F87], the pest or weed control at 100 ppm (in the assay with Cercospora beticola; with Rhyncosporium secalis; in assay [1]; in the assay on Uncinula necator) was 80 to 100% in each case.

Take `COc1ccnc(C(=O)N[C@H]2CCC[C@H](Cc3ccc(F)cc3F)[C@@H](OC(=O)c3ccco3)[C@H](C)OC2=O)c1OCOC(=O)C(C)C` [Compound F157]: the pest or weed control at 100 ppm in the assay with Cercospora beticola, in the assay with Rhyncosporium secalis and with Uncinula necator was 80 to 100% in each case. Besides, in the assay with Phakopsora pachyrhizi (setting [2]), the pest or weed control at 25 ppm lay in the range of 0 to 80%.

Consider `CCOCC(=O)OCOc1c(OC)ccnc1C(=O)N[C@H]1CCC[C@H](CC2CCCCC2)[C@@H](OCC(C)C)[C@H](C)OC1=O` [Compound F175], for which the pest or weed control at 100 ppm fell in the range of 80 to 100% in the assay with Cercospora beticola, 80 to 100% in the assay on Rhyncosporium secalis, 80 to 100% in assay [1] and 0 to 80% with Uncinula necator.

In the case of `CCCO[C@@H]1[C@@H](Cc2ccc(OC)cc2)CCC[C@H](NC(=O)c2nccc(OC)c2OCOC(C)=O)C(=O)O[C@H]1C` [Compound F119], the pest or weed control at 100 ppm (in the assay with Cercospora beticola; in the assay with Rhyncosporium secalis; in assay [1]) was 80 to 100% throughout. The pest or weed control at 25 ppm lay within 80 to 100% in the assay with Phakopsora pachyrhizi (setting [2]) and 0 to 80% in the assay with Phakopsora pachyrhizi (setting [3]).

For `CCOCC(=O)OCOc1c(OC)ccnc1C(=O)N[C@H]1CCC[C@H](Cc2ccc(F)cc2)[C@@H](OCC(C)C)[C@H](C)OC1=O` [Compound F168], the pest or weed control at 25 ppm with Phakopsora pachyrhizi (setting [2]) lay in the range of 80 to 100%; in the assay on Phakopsora pachyrhizi (setting [3]), 0 to 80%. Further, in the assay with Uncinula necator, the pest or weed control at 100 ppm is 80 to 100%.

As for `COc1ccnc(C(=O)N[C@H]2CCC[C@H](Cc3ccccc3)[C@@H](Oc3ccccc3)[C@H](C)OC2=O)c1OCOC(C)=O` [Compound F108], the pest or weed control at 100 ppm (with Cercospora beticola; in the assay on Rhyncosporium secalis; in assay [1]; in the assay with Uncinula necator) was 80 to 100% in each case.

With `CCCO[C@@H]1[C@@H](Cc2ccccc2)CCC[C@H](NC(=O)c2nccc(OC)c2OC(C)=O)C(=O)O[C@H]1C` [Compound F88], the pest or weed control at 100 ppm (with Cercospora beticola; with Rhyncosporium secalis; in assay [1]; with Uncinula necator) was 80 to 100% in each case.

For `COc1ccc(C[C@H]2CCC[C@H](NC(=O)c3nccc(OC)c3OCOC(C)=O)C(=O)O[C@@H](C)[C@@H]2Oc2ccccc2)cc1` [Compound F114], the pest or weed control at 100 ppm (with Cercospora beticola; in the assay on Rhyncosporium secalis; in assay [1]) was 80 to 100% each time.

In the case of `COc1ccnc(C(=O)N[C@H]2CCC[C@H](Cc3ccc(C)cc3)[C@@H](OCC(C)C)[C@H](C)OC2=O)c1OCOC(C)=O` [Compound F126], the pest or weed control at 100 ppm (in the assay with Cercospora beticola; in the assay with Rhyncosporium secalis; in assay [1]) was 80 to 100% in each case.

Consider `COc1ccc(C[C@H]2CCC[C@H](NC(=O)c3nccc(OC)c3OCOC(C)=O)C(=O)O[C@@H](C)[C@@H]2OCC(C)C)cc1` [Compound F118], for which the pest or weed control at 100 ppm (in the assay with Cercospora beticola; in the assay on Rhyncosporium secalis; in assay [1]) was 80 to 100% in each case. In addition, the results for the pest or weed control at 25 ppm in the assay with Phakopsora pachyrhizi (setting [2]) and in the assay with Phakopsora pachyrhizi (setting [3]) were 80 to 100% and 0 to 80%, respectively.

On to `COc1ccnc(C(=O)N[C@H]2CCC[C@H](Cc3ccccc3)[C@@H](OC3CCCC3)[C@H](C)OC2=O)c1OCOC(C)=O` [Compound F110], for which the pest or weed control at 100 ppm (in the assay with Rhyncosporium secalis; in assay [1]; in the assay with Uncinula necator) was 80 to 100% throughout.
